From patent US20200140821A1, “EX VIVO MEAT PRODUCTION” (WILD TYPE, INC., priority 2017, published 2020)
“Also recorded” adds a separate entry of the source.

Test system: duck hepatocytes
Assay: Induction of steatosis in cultured duck hepatocytes by incubation with fatty acid
Type: cell-based

percentage of steatotic hepatocytes (2 μM linoleic acid, FIG. 16B): above 85%
SMILES: CCCCC/C=C\C/C=C\CCCCCCCC(=O)O [linoleic acid]
dose response: percentage of hepatocytes with steatosis versus concentration (0, 0.1, 0.25, 0.5, 1, 2 μm, FIG. 16B): corresponding increase in the percentage of hepatocytes with steatosis
induction of steatosis (accumulation of intracellular lipid-containing vesicles) (2 μM, compared to untreated control, FIG. 16A): successful induction of steatosis; also recorded: successfully induced to undergo steatosis
